Test results taken from patent publication US9328093B2, “Selective inhibitors of ubiquitin specific protease 7, the pharmaceutical compositions thereof and their therapeutic applications” (HYBRIGENICS SA, priority 2010, dated 2016).
Where two headings read alike, the source gives them in different places.

Tests used:
[1] = tested on: HCT116 colon cancer cells; assay: HCT116 cell viability and proliferation assay (MTS); type: cell-based; details: HCT116, 72 hours, read-out: Cell viability (MTS): HCT116 GI50 Day3
Protocol: HCT116 colon cancer cells were obtained from ATCC (American Type Culture Collection), and maintained in Mc Coy's 5A medium containing 10% FBS, 3 mM glutamine and 1% penicillin/streptomycin. Cells were incubated at 37° C. in a humidified atmosphere containing 5% CO2.
Cell viability was assayed using the MTS technique in 96-well culture plates (CellTiter 96® Aqueous Non-Radioactive Cell Proliferation Assay, Promega) according to the manufacturer's instructions. MTS (3-(4,5-dimethyl-thiazol-2-yl)-5-(3-carboxy-methoxyphenyl)-2-(4-sulfophenyl)-2H-tetra-zolium) is a MTT-derived tetrazolium that is reduced in metabolically active cells into a soluble, cell-permeant formazan. The amount of formazan, detected by its absorbance at 492 nm is proportional to the number of living, metabolically active cells.
10^3 HCT116 cells were seeded per well. 24 hours later, the medium was changed and the cells treated in triplicate with the concentrations of each compound from 100 μM to 50 nM. The compounds were diluted in 100% DMSO, whose final concentration on cells was kept at 0.5%.
Cells were incubated with the compounds for 72 hours, and their viability then assayed by the addition of MTS for 2 hours. Absorbance at 492 nm was measured directly from the 96-well culture plates. Gl50 (Growth Inhibition 50) concentrations for each compound were calculated using a sigmoidal variable slope fit (Prism 4.0, Graphpad Softwares). Values represent mean of three independent experiments.

USP7 [2] = molecular target: T1, USP7 (Homo sapiens, UniProt Q93009); assay: USP7 activity assay (Ub-AMC substrate); type: biochemical; details: Ub-AMC 300 nM, USP7 100 pM, 30 min pre-incubation
T1 construct: Full-length wild-type human USP7 and its catalytic mutant (cysteine 223 replaced by alanine, C223A) were produced as N-terminally His-tagged fusions; His (N); made in house; host or cells: Spodoptera frugiperda Sf9 (or High Five) insect cells, baculovirus pFastBac-HT-B
Text: The cDNA encoding USP7 was obtained by PCR amplification from placenta mRNA. USP7 cDNA was subcloned by PCR into a baculovirus expression vector (pFastBac-HT; Invitrogen). Full-length wild-type human USP7 and its catalytic mutant (cysteine 223 replaced by alanine, C223A) were produced as N-terminally His-tagged fusions in Spodoptera frugiperda cells (Sf9, Invitrogen), using the Bac-to-Bac Baculovirus system from Invitrogen according to the manufacturer's instructions. pFastBac-HT-B-USP7 was used to transform DH10bac cells (Invitrogen), and blue/white selection was carried out on X-gal/IPTG agar plates. Bacmid DNA was prepared by an alkaline lysis procedure. The integrity of the bacmid minipreps and their orientation were checked by PCR, using generic and specific primers. Sf9 insect cells were cultured in InsectXpress medium (Cambrex) at 27° C. and transfected with the corresponding bacmid, using GeneShuttle 40 (Q-BIOgen). Viruses were recovered in the supernatant 72 h after transfection. Viruses were amplified by infecting insect cells (Sf9 or High Five cells; invitrogen) in 50 ml InsectXpress medium in a 150 cm^2 cell culture flask with 500 μl of the supernatant from transfected Sf9 cells. Following the second round of amplification, infected cells were recovered by rapid SDS lysis, boiled for 5 min at 100° C., sonicated briefly and centrifuged for 20 min at 14,000 g. Expression levels in infected Sf9 cells were compared with those in uninfected cells. Fusion proteins were then allowed to bind to TALON beads (BD Biosciences, TALON metal affinity resin) for 30 min at 4° C. with gentle rocking. Beads were extensively washed (50 mM sodium phosphate buffer pH 7.0, 500 mM NaCl, 10 mM Imidazole, 0.5% Triton X-100 and 10% glycerol) and bound proteins were eluted in wash buffer supplemented with 250 mM Imidazole (Sigma). Eluted fractions were resolved on 4-12% NuPAGE gels (Novex, Invitrogen). Fractions containing high concentrations of purified proteins (purity >95%) were dialyzed (20 mM Tris HCl pH 7.6, 200 mM NaCl, 1 mM DTT, 1 mM EDTA and 10% glycerol) were aliquoted and snap frozen in liquid nitrogen before storage at −80° C.
USP7 was diluted in USP buffer (50 mM Tris HCl; 0.5 mM EDTA; 5 mM DTT; 0.01% Triton X-100; Bovine Serum Albumin 0.05 mg·ml^−1 pH7.6). Compounds stocks (10 mM) were stored at −20° C. in DMSO. Compounds were tested at different concentrations: from 200 μM to 91 nM.
Reactions were performed as duplicates in Black 384 well plates (small volumes microplates; Greiner; 10 μl final reaction volume). The substrate concentration for USP7 was 300 nM Ub-AMC (Chem. Biol., 2003, 10, p. 837-846) (Boston Biochem). The concentrations of the enzyme (USP7) in specificity assays was 100 pM. The concentrations were determined in order to perform specificity assays under initial velocities at fixed substrate concentration. Compounds were pre-incubated with enzymes for 30 minutes at 25° C. Reactions were initiated by addition of substrate to the plates containing the enzymes (+/− compounds) diluted in assay buffer. Reactions were incubated for 60 minutes at 37° C. Reactions were stopped by adding acetic acid (100 mM final). Readings were performed on a Pherastar Fluorescent Reader (BMG). λ
Emission 380 nm; λ Excitation=460 nm. Data (mean values +/− standard deviation) were analyzed as % of control (no compound) and plotted as percentage versus the Log of the compound concentration using GraphPad (Prism). Data were fitted to a sigmoidal model (variable slope).

USP8 = molecular target: T2, USP8 (Homo sapiens, UniProt P40818); assay: USP8 assay with GST-Ub52-Flag substrate (HTRF); type: biochemical; details: USP8 400 pM
T2 construct: His (from pFastBac-HT vector) (N); made in house; host or cells: Sf9 or High Five insect cells, baculovirus
T2 sequence (P40818 1-1118): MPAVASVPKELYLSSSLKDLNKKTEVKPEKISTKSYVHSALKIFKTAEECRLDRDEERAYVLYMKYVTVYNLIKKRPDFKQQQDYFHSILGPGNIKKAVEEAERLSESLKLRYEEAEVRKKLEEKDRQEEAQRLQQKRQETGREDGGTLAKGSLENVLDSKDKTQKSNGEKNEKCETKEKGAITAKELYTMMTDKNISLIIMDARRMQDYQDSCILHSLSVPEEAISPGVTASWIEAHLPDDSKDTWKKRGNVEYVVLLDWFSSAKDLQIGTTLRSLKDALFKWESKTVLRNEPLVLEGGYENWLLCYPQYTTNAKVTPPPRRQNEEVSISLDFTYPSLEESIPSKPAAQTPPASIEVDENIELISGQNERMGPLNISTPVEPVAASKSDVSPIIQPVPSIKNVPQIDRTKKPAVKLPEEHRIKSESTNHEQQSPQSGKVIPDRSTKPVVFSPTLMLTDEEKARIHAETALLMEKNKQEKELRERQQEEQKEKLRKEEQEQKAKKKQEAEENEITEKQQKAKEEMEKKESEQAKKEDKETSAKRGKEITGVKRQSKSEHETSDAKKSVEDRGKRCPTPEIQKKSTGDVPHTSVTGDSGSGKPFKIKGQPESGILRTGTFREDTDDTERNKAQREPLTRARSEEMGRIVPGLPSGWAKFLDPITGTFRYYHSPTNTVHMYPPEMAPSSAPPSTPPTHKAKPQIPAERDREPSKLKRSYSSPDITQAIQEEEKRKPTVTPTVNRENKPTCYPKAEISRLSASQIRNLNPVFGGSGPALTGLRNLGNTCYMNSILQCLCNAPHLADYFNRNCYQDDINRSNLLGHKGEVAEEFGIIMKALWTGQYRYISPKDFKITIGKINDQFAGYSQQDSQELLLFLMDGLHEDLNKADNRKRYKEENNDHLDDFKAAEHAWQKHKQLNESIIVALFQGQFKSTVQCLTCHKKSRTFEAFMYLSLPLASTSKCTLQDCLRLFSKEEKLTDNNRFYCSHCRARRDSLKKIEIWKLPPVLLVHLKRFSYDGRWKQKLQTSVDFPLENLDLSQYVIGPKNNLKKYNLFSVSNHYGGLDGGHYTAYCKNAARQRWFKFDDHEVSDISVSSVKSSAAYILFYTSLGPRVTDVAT
Protocol: (§1) For compounds 26 to 38, the in-vitro assays on USP7 and USP8 were carried out according to the following procedure
(§2) The present examples 26 to 38 makes it possible to validate the use of GST-Ub52-Flag in an assay based on the time-resolved measurement of fluorescence emitted by […] in homogenous medium.
(§3) The assay is carried out on multiwell assay plates. The plates are analyzed on a PHERAstar fluorimeter (BMG) after an overnight incubation at 4° C. (excitation 337 nm, emission 620 and 665 nm).
(§4) The reagents used were as follows: • Solution of USP7 at 200 pM and USP8 at 400 pM in 50 mM Tris HCl pH 7.6, Bovine Serum Albumin 0.05%, DTT 5 mM. • Anti-Flag-K (CIS bio international), solution at 0.2 μM in 0.8 M KF, 0.1 Bovine Serum Albumin, Tris HCl 25 mM pH 7.6. • Anti-GST antibody-XL665 conjugate (CIS bio international), solution at 2.6 μM in 0.8 M KF, 0.1% Bovine Serum Albumin, Tris HCl 25 mM pH 7.6. • GST-Ub52-flag solution at 14.75 μM & MBP_Ub52 at 37.7 μM are prepared by dilutions from the stock solution described above in 50 mM Tris HCl pH 7.6, EDTA 0.5 mM, Bovine Serum Albumin 0.05%, DTT 5 mM.
(§5) The enzyme reaction is carried out by mixing GST-Ub52-flag solution with 5 μl of USP7 solution (200 pM final) or 5 μl of USP8 (400 pM final). This mixture is incubated for one hour at room temperature on a multiwell assay plate. A 10 μl mixture of 5 μl of anti-Flag-K solution (0.2 μM) plus 5 μl of anti-GST-XL665 antibody (2.6 μM) is added to each well of the multiwell assay plate. The plate is read after an overnight incubation at 4° C. on a PHERAstar fluorimeter (BMG).
(§6) The decrease in the signal correlates with the increase in enzyme activity i.e. the cleavage of GST-Ub52-Flag substrate. The format used is therefore entirely suitable for a method of assaying an enzyme of the deubiquitinating type such as ubiquitin specific protease, but also for determining a modulator of this enzyme activity.
(§7) The same procedures as mentioned above for assaying the activity of enzymes of the deubiquitinating type are carried out but the various reaction mixtures are incubated with identical enzyme concentration, in the presence or absence of a test compounds 26 to 38. Data (mean values+/− standard deviation) were analyzed as % of control (no compound) and plotted as percentage versus the Log of the compound concentration using GraphPad (Prism).

USP7 [3] = molecular target: T1, USP7; assay: USP7 assay with GST-Ub52-Flag substrate (HTRF); type: biochemical; details: USP7 200 pM
Protocol: as §1, §2, §3, §4, §5, §6, §7

## CCN(CC)CCNC(=O)c1ccc2c(Cl)c3c(nc2c1)CCCC3 [Example 26, chlorhydrate of 9-chloro-5,6,7,8-tetrahydro-acridine-3-carboxylic acid (2-diethylamino-ethyl)-amide]
[1]
  GI50: 5.6 µM
USP7 [2]
  IC50: 30.5 µM

## O=C(NCC1CCN(CCCc2ccccc2)CC1)c1ccc2c(Cl)c3c(nc2c1)CCCC3 [Example 33, 9-chloro-N-((1-(3-phenylpropyl)piperidin-4-yl)methyl)-5,6,7,8-tetrahydroacridine-3-carboxamide]
USP8
  IC50: > 200 µM
[1]; Homo sapiens, HCT-116, 72 h
  GI50: 2 µM
USP7 [3]
  IC50: 16.4 µM

## O=C(NCC1CCN(CCc2ccccc2)CC1)c1ccc2c(Cl)c3c(nc2c1)CCCC3 [Example 34, 9-chloro-N-((1-phenethylpiperidin-4-yl)methyl)-5,6,7,8-tetrahydroacridine-3-carboxamide]
USP8
  IC50: > 200 µM
[1]; Homo sapiens, HCT-116, 72 h
  GI50: 2.8 µM
USP7 [3]
  IC50: 24.5 µM

## CCN(CC)CCCC(C)NC(=O)c1ccc2c(Cl)c3c(nc2c1)CCCC3 (centres unmarked) [Example 35, 9-chloro-N-(5-(diethylamino)pentan-2-yl)-5,6,7,8-tetrahydroacridine-3-carboxamide]
USP8
  IC50: > 200 µM
[1]; Homo sapiens, HCT-116, 72 h
  GI50: 8.2 µM
USP7 [3]
  IC50: 36.9 µM

## CCN1CCC[C@@H]1CNC(=O)c1ccc2c(Cl)c3c(nc2c1)CCCC3 [Example 36, (R)-9-chloro-N-((1-ethylpyrrolidin-2-yl)methyl)-5,6,7,8-tetrahydroacridine-3-carboxamide]
USP8
  IC50: > 200 µM
[1]; Homo sapiens, HCT-116, 72 h
  GI50: 9.1 µM
USP7 [3]
  IC50: 44.4 µM

## CCN1CCC[C@H]1CNC(=O)c1ccc2c(Cl)c3c(nc2c1)CCCC3 [Example 37, (S)-9-chloro-N-((1-ethylpyrrolidin-2-yl)methyl)-5,6,7,8-tetrahydroacridine-3-carboxamide]
USP8
  IC50: > 200 µM
[1]; Homo sapiens, HCT-116, 72 h
  GI50: 8.7 µM
USP7 [3]
  IC50: 25.9 µM

## CN(C)CC(C)(C)CNC(=O)c1ccc2c(Cl)c3c(nc2c1)CCCC3 [Example 38, 9-chloro-N-(3-(dimethylamino)-2,2-dimethylpropyl)-5,6,7,8-tetrahydroacridine-3-carboxamide]
USP8
  IC50: > 200 µM
[1]; Homo sapiens, HCT-116, 72 h
  GI50: 11 µM
USP7 [3]
  IC50: 49.2 µM

## O=C(NCCCN1CCc2ccccc2C1)c1ccc2c(Cl)c3c(nc2c1)CCCC3 [Example 39, 9-chloro-N-(3-(3,4-dihydroisoquinolin-2(1H)-yl)propyl)-5,6,7,8-tetrahydroacridine-3-carboxamide]
USP8
  IC50: > 200 µM
[1]; Homo sapiens, HCT-116, 72 h
  GI50: 7.6 µM
USP7 [3]
  IC50: 38.5 µM
